Assay results: patent US20080139552A1, “INDOLES” (priority 2006, published 2008)

target: T1, human V1a receptor (Homo sapiens, UniProt P37288); assay: human V1a receptor binding (3H-Vasopressin SPA, HEK293 cell membranes); conditions: membranes from HEK293 cells transiently transfected with human V1a receptor, Ki by Cheng-Prussoff, read-out: pki (hV1a) (converted)
T1 construct: expressed in transfected cells; host or cells: HEK293 cells, transiently transfected; cell membranes
Experimental: The human V1a receptor was cloned by RT-PCR from total human liver RNA. The coding sequence was subcloned in an expression vector after sequencing to confirm the identity of the amplified sequence. […] Cell membranes were prepared from HEK293 cells transiently transfected with the expression vector and grown in 20 liter fermenters with the following protocol.
50 g of cells were resuspended in 30 ml freshly prepared ice cold Lysis buffer (50 mM HEPES, 1 mM EDTA, 10 mM MgCl2 adjusted to pH=7.4+complete cocktail of protease inhibitor (Roche Diagnostics)), homogenized with Polytron for 1 min, and sonicated on ice for 2×2 minutes at 80% intensity (Vibracell sonicator). The preparation was centrifuged 20 min at 500 g at 4° C., the pellet was discarded and the supernatant centrifuged 1 hour at 43,000 g at 4° C. (19,000 rpm). The pellet was resuspended in 12.5 ml Lysis buffer+12.5ml Sucrose 20% and homogenized using a Polytron for 1-2 min. The protein concentration was determined by the Bradford method and aliquots were stored at −80° C. until use. For binding studies 60 mg Yttrium silicate SPA beads (Amersham) were mixed with an aliquot of membrane in binding buffer (50 mM Tris, 120 mM NaCl, 5 mM KCl, 2 mM CaCl2, 10 mM MgCl2) for 15 minutes with mixing. 50 ul of bead/membrane mixture was then added to each well of a 96 well plate, followed by 50 ul of 4 nM 3H-Vasopressin (American Radiolabeled Chemicals). For total binding measurement 100 ul of binding buffer were added to the respective wells, for non-specific binding 100 ul of 8.4 mM cold vasopressin were added, and for compound testing 100 ul of a serial dilution of each compound in 2% DMSO were added. The plate was incubated 1 h at room temperature, centrifuged 1 min at 1000 g and counted on a Packard Top-Count. Non-specific binding counts were subtracted from each well and data was normalized to the maximum specific binding set at 100%. To calculate an IC 50 the curve was fitted using a non-linear regression model (XLfit) and the Ki was calculated using the Cheng-Prussoff equation.

T1 sequence (P37288 whole entry): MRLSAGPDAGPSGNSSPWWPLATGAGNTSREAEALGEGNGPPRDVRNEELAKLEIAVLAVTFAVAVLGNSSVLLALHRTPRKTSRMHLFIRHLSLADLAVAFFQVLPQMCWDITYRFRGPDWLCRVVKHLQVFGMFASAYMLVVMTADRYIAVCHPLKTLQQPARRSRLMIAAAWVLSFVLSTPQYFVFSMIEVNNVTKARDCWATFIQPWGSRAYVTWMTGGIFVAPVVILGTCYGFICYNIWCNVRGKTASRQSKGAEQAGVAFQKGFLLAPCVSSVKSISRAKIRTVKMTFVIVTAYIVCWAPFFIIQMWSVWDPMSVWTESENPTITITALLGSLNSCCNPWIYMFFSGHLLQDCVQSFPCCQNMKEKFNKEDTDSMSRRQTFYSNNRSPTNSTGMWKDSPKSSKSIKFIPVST

Ki	Compound
86.1 nM	COc1cccc(OC)c1C1CCN(C(=O)c2cc3cccc(CC#N)c3[nH]2)CC1 [Example 8, {2-[4-(2,6-Dimethoxy-phenyl)-piperidine-1-carbonyl]-1H-indol-7-yl}-acetonitrile]
19.5 nM	COc1cccc(OC)c1C1CCN(C(=O)c2cc3cc(Cl)cc(CC#N)c3[nH]2)CC1 [Example 9, {5-Chloro-2-[4-(2,6-dimethoxy-phenyl)-piperidine-1-carbonyl]-1H-indol-7-yl}-acetonitrile]
40.7 nM	COc1cccc(OC)c1C1CCN(C(=O)c2cc3cc(Cl)ccc3[nH]2)CC1 [Example 5, (5-Chloro-1H-indol-2-yl)-[4-(2,6-dimethoxy-phenyl)-piperidin-1-yl]-methanone]
12.9 nM	N#CCc1cc(Cl)cc2cc(C(=O)N3CCC(c4cccc5[nH]c(=O)oc45)CC3)[nH]c12 [Example 1, {5-Chloro-2-[4-(2-oxo-2,3-dihydro-benzooxazol-7-yl)-piperidine-1-carbonyl]-1H-indol-7-yl}-acetonitrile]
14 nM	COc1cccc(OC)c1C1CCN(C(=O)c2cc3cc(Cl)ccc3n2CC#N)CC1 [Example 7, {5-Chloro-2-[4-(2,6-dimethoxy-phenyl)-piperidine-1-carbonyl]-indol-1-yl}-acetonitrile]
6.53 nM	O=C(c1cc2cc(Cl)cc(CN3CCOCC3)c2[nH]1)N1CCC(c2cccc3[nH]c(=O)oc23)CC1 [Example 2, 7-[1-(5-Chloro-7-morpholin-4-ylmethyl-1H-indole-2-carbonyl)-piperidin-4-yl]-3H-benzooxazol-2-one]
54.3 nM	COc1ccccc1C1CCN(C(=O)c2cc3cc(Cl)cc(CN4CCOCC4)c3[nH]2)CC1 [Example 11, (5-Chloro-7-morpholin-4-ylmethyl-1H-indol-2-yl)-[4-(2-methoxy-phenyl)-piperidin-1-yl]-methanone]
50.1 nM	COc1cccc(OC)c1C1CCN(C(=O)c2cc3cc(Cl)ccc3n2CC(=O)N(C)C)CC1 [Example 6, 2-{5-Chloro-2-[4-(2,6-dimethoxy-phenyl)-piperidine-1-carbonyl]-indol-1-yl}-N,N-dimethyl-acetamide]
96.6 nM	Cc1c(C(=O)N2CC=C(c3ccccc3)CC2)[nH]c2c(C)cccc12 [Example 12, (3,7-Dimethyl-1H-indol-2-yl)-(4-phenyl-3,6-dihydro-2H-pyridin-1-yl)-methanone]
45.7 nM	COc1ccccc1C1CCN(C(=O)c2cc3cc(Cl)cc(CC#N)c3[nH]2)CC1 [Example 10, {5-Chloro-2-[4-(2-methoxy-phenyl)-piperidine-1-carbonyl]-1H-indol-7-yl}-acetonitrile]
